Common to all, as to assay type: cell-based
For assay [1], the system named is PRV-GFP (porcine pseudorabies virus).
The test system of assay [2] is VSV-GFP (vesicular stomatitis virus).
Assay [3] concerns STING pathway (IFNb gene expression) in L929 mouse epithelial-like fibroblasts.
For assay [4], the system named is IAV (influenza virus).

The structures appear in SMILES notation. Several values for one entry are separate records, joined by “and”; a condition that tells them apart may be missing. Equal values may be shown once.

Turning to `COc1ccc2c(c1)Nc1c(ccc(C)c1C)C(=O)C2` [Compound 18, 3-methoxy-6,7-dimethyl-5,11-dihydro-10H-dibenzo[b,f]aza-10-one], in assay [1], the “Infection Rate, PRV-GFP” value was 18.3% and 18.1%; the “proportion of PRV-GFP infected cells (in words)” value is “significantly reduced”. In addition, in assay [2], the “Infection Rate, VSV-GFP” value was 13.9% and 12.5% and 12.9%; the “proportion of VSV-GF infected cells (in words)” value is “significantly reduced”. In addition, the “IFNb mRNA expression 2-^ΔΔCt value” in assay [3] is 8.76 and 6.92 and 6.07 and 5.62. In addition, in assay [4], the “M1 (M gene of influenza virus) Ct value” was 19.52 and 19.47 and 19.51.

For the compound `COc1ccc2c(c1)C(=O)Cc1ccccc1N2` [Compound 17, 8-methoxy-5,11-dihydro-10H-dibenzo[b,f]aza-10-one], the “IFNb mRNA expression 2-^ΔΔCt value” in assay [3] is recorded as 1.54.

For `O=C1Cc2ccccc2Nc2c(Cl)cccc21` [Compound 15, 6-chloro-5,11-dihydro-10H-dibenzo[b,f]aza-10-one], in assay [3], the “IFNb mRNA expression 2-^ΔΔCt value” was 1.61.

For the compound `Cc1ccc2c(c1C)Nc1cc(F)ccc1CC2=O` [Compound 13, 3-fluoro-6,7-dimethyl-5,11-dihydro-10H-dibenzo[b,f]aza-10-one], in assay [1], the “Infection Rate, PRV-GFP” value is 7.06% and 8.55% and 7.42%; the “proportion of PRV-GFP infected cells (in words)” value was “significantly reduced”. Moreover, in assay [2], the “Infection Rate, VSV-GFP” value was 94.3% and 92.7% and 92.1%; the “proportion of VSV-GF infected cells (in words)” value is reported as “significantly reduced”. In addition, the “IFNb mRNA expression 2-^ΔΔCt value” in assay [3] is 2.97 and 2.37 and 2.48 and 3.34. The “M1 (M gene of influenza virus) Ct value” in assay [4] was 19.45 and 20.25 and 19.66.

As for `Cc1ccc2c(c1C)Nc1ccccc1CC2=O` [Compound 11, 6,7-dimethyl-5,11-dihydro-10H-dibenzo[b,f]aza-10-one], in assay [1], the “Infection Rate, PRV-GFP” value is 13.1% and 14.2% and 13.5%; the “proportion of PRV-GFP infected cells (in words)” value is given as “significantly reduced”. In assay [2], the “Infection Rate, VSV-GFP” value was 40% and 31.1% and 33.7%; the “proportion of VSV-GF infected cells (in words)” value was “significantly reduced”. The “M1 (M gene of influenza virus) Ct value” in assay [4] is 18.71 and 18.62 and 18.68.

Turning to `COc1ccc2c(c1)CC(=O)c1ccc(C)c(C)c1N2` [Compound 19, 2-methoxy-6,7-dimethyl-5,11-dihydro-10H-dibenzo[b,f]aza-10-one], in assay [1], the “Infection Rate, PRV-GFP” value is 51% and 55.7% and 50.2%; the “proportion of PRV-GFP infected cells (in words)” value was “significantly reduced”. For the same compound, in assay [2], the “Infection Rate, VSV-GFP” value was 99% and 91.1% and 90.5%; the “proportion of VSV-GF infected cells (in words)” value is “significantly reduced”. For the same compound, in assay [4], the “M1 (M gene of influenza virus) Ct value” was 21.37 and 21.39 and 21.49.

For `O=C1Cc2ccccc2Nc2ccccc21` [Compound 14, 5,11-dihydro-10H-dibenzo[b,f]aza-10-one], in assay [1], the “Infection Rate, PRV-GFP” value was 17.1% and 19.5% and 19.8%; the “proportion of PRV-GFP infected cells (in words)” value is given as “significantly reduced”. For the same compound, in assay [2], the “Infection Rate, VSV-GFP” value was 76.1% and 66.5% and 65.8%; the “proportion of VSV-GF infected cells (in words)” value is reported as “significantly reduced”. For the same compound, the “M1 (M gene of influenza virus) Ct value” in assay [4] was 18.99 and 19.52 and 19.69.

The values are drawn from patent US20250120980A1, “DIBENZ[…] AND USE IN […] PROTEIN AGONISTS THEREOF” (priority 2023, published 2025).
